Here are results for one compound from patent US8956555B2, “Silylethynyl pentacene compounds and compositions and methods of making and using the same” (3M Innovative Properties Company, priority 2008, dated 2015).

This series is described as follows: Solubility in organic solvent (toluene). Type of series: physicochemical.

For the compound `C=CC[Si](C#Cc1c2cc3ccccc3cc2c(C#C[Si](CC=C)(C(C)C)C(C)C)c2cc3ccccc3cc12)(C(C)C)C(C)C` [Compound I, 6,13-bis(allyldiisopropylsilylethynyl)pentacene], the solubility in toluene entry is recorded as “greater than 21 wt %”.
